Reference: patent publication US20130203649A1, “INHIBITORS OF TLR SIGNALING BY TARGETING TIR DOMAIN INTERFACES” (UNIVERSITY OF MARYLAND, BALTIMORE, priority 2012, published 2013)
Entries after “also recorded” stand apart in the source; their conditions may differ. Residues, ends and D or L forms follow the SMILES beside them. No end group written: not given here.

How the values were obtained:
Type in all cases: cell-based
[1] = target: T1, TLR2 (Mus musculus, UniProt Q9QUN7); experiment: Inhibition of TLR2 signaling in thioglycollate-elicited mouse macrophages (effective concentration, TLR2 agonists P3C/P2C); settings: mouse macrophages, P3C/P2C
T1 construct: Primary peritoneal macrophages were obtained by peritoneal lavage; endogenous in cells; host or cells: thioglycollate-elicited mouse peritoneal macrophages
T1 sequence (Q9QUN7 25-784): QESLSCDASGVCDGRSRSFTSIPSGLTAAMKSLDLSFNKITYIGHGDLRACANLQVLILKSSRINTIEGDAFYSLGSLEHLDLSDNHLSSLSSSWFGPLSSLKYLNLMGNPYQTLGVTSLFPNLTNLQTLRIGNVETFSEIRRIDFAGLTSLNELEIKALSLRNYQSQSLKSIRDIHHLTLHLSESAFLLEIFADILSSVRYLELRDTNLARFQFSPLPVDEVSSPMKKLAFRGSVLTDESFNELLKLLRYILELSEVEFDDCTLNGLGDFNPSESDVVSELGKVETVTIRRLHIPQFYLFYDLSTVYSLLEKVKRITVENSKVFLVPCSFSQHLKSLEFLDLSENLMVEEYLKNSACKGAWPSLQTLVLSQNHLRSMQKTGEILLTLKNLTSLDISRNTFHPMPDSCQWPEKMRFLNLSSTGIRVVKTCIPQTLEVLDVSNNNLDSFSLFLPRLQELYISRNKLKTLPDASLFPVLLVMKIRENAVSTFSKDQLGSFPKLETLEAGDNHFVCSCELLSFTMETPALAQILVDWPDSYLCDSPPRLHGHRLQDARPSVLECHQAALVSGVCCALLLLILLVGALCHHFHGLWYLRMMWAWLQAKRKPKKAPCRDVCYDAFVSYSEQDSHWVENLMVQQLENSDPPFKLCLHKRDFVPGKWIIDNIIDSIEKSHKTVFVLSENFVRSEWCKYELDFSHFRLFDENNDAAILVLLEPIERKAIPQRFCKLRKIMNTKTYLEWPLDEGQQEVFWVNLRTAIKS
Procedure: C57BL/6J mice were obtained from The Jackson Laboratory (Bar Harbor, Me.). Primary peritoneal macrophages were obtained by peritoneal lavage 4 days after intraperitoneal injection (3 ml) of sterile 3% thioglycolate broth. Washed cells were resuspended in RPMI 1640 which contained 2% FBS, 1% penicillin:streptomycin and 2 mM L-glutamine. After plating, cells were incubated overnight at 37° C. and then washed with PBS to remove non-adherent cells. Cells were exposed to peptides 30 min before stimulation with a TLR agonist.
(§1) Protein-free Escherichia coli K235 LPS was used at final concentration of 10 ng/ml to stimulate cells. S-[2,3-bis(palmitoyloxy)-(2-RS)-propyl]-N-palmitoyl-(R)-Cys-Ser-Lys4-OH (P3C) and S-[2,3-bis(palmitoyloxy)-(2-RS)-propyl]-[R]-Cys-Ser-Lys4-OH (P2C) were purchased from EMC microcollections GmbH (Tubingen, Germany) and used for cell stimulation at 500 and 50 ng/ml, respectively. Phospho-ERK1/2 and phospho-JNK1/2 rabbit Abs were obtained from Cell Signaling Technology, Inc. β-actin rabbit Ab were from SantaCruz Biotechnology, Inc.
(§2) Because of the role TRAP plays in TLR2 signaling, TIRAP TIR-derived decoy peptide effects on TLR2-induced cytokine mRNA expression were examined. Thioglycollate-elicited mouse macrophages were stimulated either by P2C, an agonist that induces signaling through TLR2/TLR6 heterodimerization, or P3C, a TLR2/TLR1 agonist, and effects of TIRAP TR-derived decoy peptides on induction of cytokine mRNA were examined. […] To confirm the inhibitory effect of TR3 and TR6 on P3C-induced signaling, IL-6 and TNF-α concentration was measured in macrophage supernatants collected 5 h after stimulation of cells with P3C. […] Concordantly, both TR3 and TR6 diminished the P3C-induced ERK phosphorylation (FIG. 3D).
(§3) C57BL/6J mice were obtained from The Jackson Laboratory (BarHarbor, Me.). Harvesting, culturing, and stimulation of peritoneal macrophages were described in previous publications (1, 18, 19). Escherichia coli K235 LPS (34) was used at the final concentration of 100 ng/ml. The 2,3-bis(palmitoyloxy)-(2-RS)-propyl-N-palmitoyl-(R)-Cys-Ser-Lys4-OH (P3C) and S[2,3-bis(palmitoyloxy)-(2-RS)-propyl]-[R]-Cys-Ser-Lys4-OH (P2C) (EMC Microcollections, Tubingen, Germany) were used at 500 and 50 ng/ml, respectively. Oligonucleotide (ODN) 1668 and low m.w. polyinosinic-polycytidylic acid [poly(I:C)] in complex with LyoVec were obtained from InvivoGen; these agonists were used at 2.5 μM and 400 ng/ml, respectively.

[2] = target: T2, TLR2/TLR6 heterodimer (Mus musculus, UniProt Q9QUN7); experiment: P2C-induced cytokine mRNA expression in mouse macrophages; settings: P2C 50 ng/ml, 1 h
T2 construct: endogenous in cells; host or cells: thioglycollate-elicited mouse peritoneal macrophages
T2 sequence (Q9QUN7 25-784, one chain of several): as the sequence (Q9QUN7 25-784) above
Excerpt: Total cellular RNA was isolated using Tripure from Roche (San Francisco, Calif.) following manufacture's protocol. RNA was then reverse transcribed using AMV Reverse Transcriptase from Promega (Madison, Wis.) with poly-T priming as per manufacturer's directions. cDNA was then quantified by real-time PCR using Applied Biosystems Fast SYBR Green PCR Master Mix and an ABI Prism 7500HT cycler. Primers used for detection: hypoxanthine phosphoribosyltransferase (HPRT) (forward: […] (SEQ ID NO:51), reverse: […] (SEQ ID NO:52)), TNFα (forward: […] (SEQ ID NO:53), reverse: […] (SEQ ID NO:54)), IL-1β (forward: […] (SEQ ID NO:55), reverse: […] (SEQ ID NO:56)), IFNβ (forward: […] (SEQ ID NO:57), reverse: CTCGGACCACCATCCAGG (SEQ ID NO:58)) and RANTES (forward: […] (SEQ ID NO:59), reverse: […] (SEQ ID NO:60)). The primers were designed using Primer Express 2.0 (Applied Biosystems). Using HPRT as reference, the ΔCt method was used to calculate relative gene expression. One-way ANOVA was preformed, as well as Dunnett's multiple comparison post hoc test with a p≦0.01 selected as the level of significance.
as §1, §2, §3

[3] = target: T3, TLR2/TLR1 heterodimer (Mus musculus, UniProt Q9QUN7); experiment: P3C-induced ERK phosphorylation in primary macrophages (Western analysis); settings: P3C 30 min
T3 construct: endogenous in cells; host or cells: thioglycollate-elicited mouse peritoneal macrophages
T3 sequence (Q9QUN7 25-784, one chain of several): as the sequence (Q9QUN7 25-784) above
Procedure: FIG. 3. Effect of TIRAP decoy peptides on TLR2 signaling. Thioglycollate-elicited macrophages were incubated in the presence of 20 (black columns) or 40 μM (open columns) of a decoy peptide for 30 min prior to stimulation with P3C (500 ng/ml) (A and C) or P2C (50 ng/ml) (B). Cytokine mRNA expression was measured 1 h after TLR2 stimulation and is normalized to the expression of HPRT gene. C. IL-6 and TNF-α were measured by ELISA in macrophage supernatants collected 5 h after P3C (500 ng/ml) stimulation. D. Peptides TR3 and TR6 inhibit ERK activation induced by TLR2 agonist, P3C. ERK phosphorylation was measured by Western analysis in primary macrophage stimulated by P3C for 30 min.
Cellular protein extracts were isolated by addition of 240 μL per well cold lysate buffer (20 mM Tris, 50 mM NaCl, 1.5 mM MgCl2, 2 mM EDTA, 10 mM NaF, 2 Mm DTT, 1 mM Na3VO4, 1% Triton). Cells were incubated with lysis solution for 30 min on agitator at 4° C. […] After quantification using BioRad protein assay, protein samples were added to Laemmli buffer and then boiled for 10 min. […]
Because of the role TRAP plays in TLR2 signaling, TIRAP TIR-derived decoy peptide effects on TLR2-induced cytokine mRNA expression were examined. […] To confirm the inhibitory effect of TR3 and TR6 on P3C-induced signaling, IL-6 and TNF-α concentration was measured in macrophage supernatants collected 5 h after stimulation of cells with P3C. […]

Compound | Inhibition of TLR2 signaling (overall) [1] | P2C-induced TNFα and IL-1β mRNA ([2]; 20 μM peptide) | P2C-induced TNFα and IL-1β mRNA ([2]; 40 μM peptide) | P3C-induced ERK phosphorylation [3]
RQIKIWFQNRRMKWKKEGSQASLRCF [TR3] | inhibits | significantly less | did not affect significantly | diminished; also recorded: inhibit
CC[C@H](C)[C@H](NC(=O)[C@H](CCCCN)NC(=O)[C@@H](NC(=O)[C@H](CCC(N)=O)NC(=O)[C@@H](N)CCCNC(=N)N)[C@@H](C)CC)C(=O)N[C@@H](Cc1c[nH]c2ccccc12)C(=O)N[C@@H](Cc1ccccc1)C(=O)N[C@@H](CCC(N)=O)C(=O)N[C@@H](CC(N)=O)C(=O)N[C@@H](CCCNC(=N)N)C(=O)N[C@@H](CCCNC(=N)N)C(=O)N[C@@H](CCSC)C(=O)N[C@@H](CCCCN)C(=O)N[C@@H](Cc1c[nH]c2ccccc12)C(=O)N[C@@H](CCCCN)C(=O)N[C@@H](CCCCN)C(=O)N[C@@H](CCC(=O)O)C(=O)N[C@@H](CC(C)C)C(=O)N[C@@H](CS)C(=O)N[C@@H](CCC(N)=O)C(=O)N[C@@H](C)C(=O)N[C@@H](CC(C)C)C(=O)N[C@@H](CO)C(=O)N[C@@H](CCCNC(=N)N)C(=O)N[C@@H](CO)C(=O)N[C@@H](Cc1c[nH]cn1)C(=O)N[C@@H](CS)C(=O)N[C@@H](CCCNC(=N)N)C(=O)O [TR5] (H-RQIKIWFQNRRMKWKKELCQALSRSHCR-OH) | does not |  |  | 
RQIKIWFQNRRMKWKKPGFLRDPWCKYQML [TR6] |  | significantly less | did not affect significantly | diminished; also recorded: inhibit
